# Like-named read-outs stand apart in the source and are kept apart here.
# Legend:
# Human recombinant HDAC1 = biological target: T1, Human recombinant HDAC1 (Homo sapiens, UniProt Q13547); assay: HDAC enzyme activity test, HDAC1; format: biochemical
# T1 construct: purchased Enzo Life Science Co. (named for the kit; assigned to the enzyme from the BML- catalogue prefix) BML-SE456
# Protocol: (§1) Then, 0.3 μg of enzyme and 10 μM of substrate per well were added, reacted at 30° C. for 60 minutes. Thereto, Fluor de Lys® Developer II (BML-KI176) was added and reacted for 30 minutes. […] From the data, the respective IC50 were calculated by GraphPad Prism 4.0 program.
# HDAC8 = biological target: T2, HDAC8 (Homo sapiens, UniProt Q9BY41); assay: HDAC enzyme activity test, HDAC8; format: biochemical; details: Table 11, eleven HDAC isozymes; read-out: Inhibition ability (IC50) against HDAC8
# T2 sequence (Q9BY41 1-377): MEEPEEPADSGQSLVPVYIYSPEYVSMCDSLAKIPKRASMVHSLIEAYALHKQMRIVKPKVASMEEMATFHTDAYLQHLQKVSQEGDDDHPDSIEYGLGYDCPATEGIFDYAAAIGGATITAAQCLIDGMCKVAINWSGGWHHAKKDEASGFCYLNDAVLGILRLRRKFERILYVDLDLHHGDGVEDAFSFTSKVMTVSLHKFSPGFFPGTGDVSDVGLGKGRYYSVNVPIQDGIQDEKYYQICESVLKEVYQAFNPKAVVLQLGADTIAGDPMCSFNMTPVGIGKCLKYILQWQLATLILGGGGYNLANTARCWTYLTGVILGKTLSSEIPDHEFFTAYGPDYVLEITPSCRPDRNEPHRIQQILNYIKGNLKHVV
# Protocol: as §1
# HDAC9 = HDAC9 (Homo sapiens, UniProt Q9UKV0); assay: HDAC enzyme activity test, HDAC9; format: biochemical; details: Table 11, eleven HDAC isozymes; read-out: Inhibition ability (IC50) against HDAC9
# HDAC9, sequence (Q9UKV0 whole entry, species assumed): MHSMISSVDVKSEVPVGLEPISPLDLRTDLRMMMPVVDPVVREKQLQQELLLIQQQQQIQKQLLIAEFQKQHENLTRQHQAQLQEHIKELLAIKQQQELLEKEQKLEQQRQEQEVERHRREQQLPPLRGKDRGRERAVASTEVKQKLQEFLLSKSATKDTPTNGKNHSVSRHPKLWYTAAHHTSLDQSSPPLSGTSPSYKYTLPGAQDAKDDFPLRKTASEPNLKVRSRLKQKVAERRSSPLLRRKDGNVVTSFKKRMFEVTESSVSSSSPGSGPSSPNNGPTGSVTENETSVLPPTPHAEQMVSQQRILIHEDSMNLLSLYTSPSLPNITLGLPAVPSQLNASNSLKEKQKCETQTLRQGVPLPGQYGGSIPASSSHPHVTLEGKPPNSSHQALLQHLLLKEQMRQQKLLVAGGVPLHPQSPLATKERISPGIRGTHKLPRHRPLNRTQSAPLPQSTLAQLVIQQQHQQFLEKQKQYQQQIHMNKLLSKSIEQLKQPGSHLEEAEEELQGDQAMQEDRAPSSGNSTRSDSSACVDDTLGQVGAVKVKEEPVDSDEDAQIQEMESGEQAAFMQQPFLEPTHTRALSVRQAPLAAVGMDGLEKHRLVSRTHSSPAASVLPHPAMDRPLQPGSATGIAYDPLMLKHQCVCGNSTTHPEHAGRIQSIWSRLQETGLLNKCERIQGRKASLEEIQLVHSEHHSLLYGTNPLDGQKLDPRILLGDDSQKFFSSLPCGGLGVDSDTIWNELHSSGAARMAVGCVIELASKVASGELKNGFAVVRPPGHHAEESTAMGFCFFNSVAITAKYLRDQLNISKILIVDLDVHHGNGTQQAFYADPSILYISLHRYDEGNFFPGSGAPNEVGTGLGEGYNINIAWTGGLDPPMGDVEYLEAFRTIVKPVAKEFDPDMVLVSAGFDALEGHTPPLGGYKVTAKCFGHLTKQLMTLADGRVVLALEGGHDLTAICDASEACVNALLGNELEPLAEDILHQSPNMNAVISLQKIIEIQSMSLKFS
# Protocol: as §1
# [1] = system: collagen-induced arthritis model; assay: Effectiveness of compound 237 in a collagen-induced arthritis model; format: in vivo
# Source text: 6-week aged male DBA1J mice were used in the experiment. The animal facility was kept at constant temperature and constant humidity with a 12-hr dark/12-hr light cycle, and the animals were allowed to access food and water ad libitum. The animals were acclimated to the cage for 7 days.
# Each arthritis-onset animals were selected and then promptly used in the experiments. The experimental animal groups consist of • A. a vehicle-control group administered with only vehicle once a day via s.c. (subcutaneous injection), • B. a compound test group administered with compound 237 in dose of 15 mg/kg q.d. (once a day) via s.c., • C. a compound test group administered with compound 237 in dose of 15 mg/kg b.i.d. (twice a day) via s.c., and • D. a compound test group administered with compound 237 in dose of 30 mg/kg q.d. via s.c.
# A solution of compound 237 for administration was prepared using Cremophore EL:Ethanol:Saline=1.5:1.5:7 as a vehicle just before administration. It was administered in a volume of 5 ml/kg via s.c. with each doses of 15 and 30 mg/kg once or twice a day.
# Bovine type 2 collagen (Chondrex) and complete Freund's adjuvant (Chondrex) are mixed in 1:1 to become an emulsion. Each 0.1 ml of the obtained emulsion was injected to the tail of each mouse intradermally for immunization. After 21 days, Bovine type 2 collagen (Chondrex) and incomplete Freund's adjuvant (Chondrex) are mixed in 1:1 to become an emulsion. Each 0.1 ml of the obtained emulsion was injected to the hips of each mouse intradermally for boosting. After boosting, the mice were divided in each groups, and administered with compound 237 or only vehicle according to the administration schedule. Their body weights and clinical scores were evaluated three times per week.
# From each four feet of a mouse, the clinical scores were evaluated according to the following criterion and added together thereby to determine the clinical score of the mouse (normal, 0; and the most severe edema, 16).
# All the results were expressed as mean±SEM, and the experimented groups were compared with each other using one-way ANOVA test (Dunnett's test, p<0.001).
# HDAC4 = HDAC4 (Homo sapiens, UniProt P56524); assay: HDAC enzyme activity test, HDAC4; format: biochemical; details: Table 11, eleven HDAC isozymes; read-out: Inhibition ability (IC50) against HDAC4
# HDAC4, sequence (P56524 whole entry, species assumed): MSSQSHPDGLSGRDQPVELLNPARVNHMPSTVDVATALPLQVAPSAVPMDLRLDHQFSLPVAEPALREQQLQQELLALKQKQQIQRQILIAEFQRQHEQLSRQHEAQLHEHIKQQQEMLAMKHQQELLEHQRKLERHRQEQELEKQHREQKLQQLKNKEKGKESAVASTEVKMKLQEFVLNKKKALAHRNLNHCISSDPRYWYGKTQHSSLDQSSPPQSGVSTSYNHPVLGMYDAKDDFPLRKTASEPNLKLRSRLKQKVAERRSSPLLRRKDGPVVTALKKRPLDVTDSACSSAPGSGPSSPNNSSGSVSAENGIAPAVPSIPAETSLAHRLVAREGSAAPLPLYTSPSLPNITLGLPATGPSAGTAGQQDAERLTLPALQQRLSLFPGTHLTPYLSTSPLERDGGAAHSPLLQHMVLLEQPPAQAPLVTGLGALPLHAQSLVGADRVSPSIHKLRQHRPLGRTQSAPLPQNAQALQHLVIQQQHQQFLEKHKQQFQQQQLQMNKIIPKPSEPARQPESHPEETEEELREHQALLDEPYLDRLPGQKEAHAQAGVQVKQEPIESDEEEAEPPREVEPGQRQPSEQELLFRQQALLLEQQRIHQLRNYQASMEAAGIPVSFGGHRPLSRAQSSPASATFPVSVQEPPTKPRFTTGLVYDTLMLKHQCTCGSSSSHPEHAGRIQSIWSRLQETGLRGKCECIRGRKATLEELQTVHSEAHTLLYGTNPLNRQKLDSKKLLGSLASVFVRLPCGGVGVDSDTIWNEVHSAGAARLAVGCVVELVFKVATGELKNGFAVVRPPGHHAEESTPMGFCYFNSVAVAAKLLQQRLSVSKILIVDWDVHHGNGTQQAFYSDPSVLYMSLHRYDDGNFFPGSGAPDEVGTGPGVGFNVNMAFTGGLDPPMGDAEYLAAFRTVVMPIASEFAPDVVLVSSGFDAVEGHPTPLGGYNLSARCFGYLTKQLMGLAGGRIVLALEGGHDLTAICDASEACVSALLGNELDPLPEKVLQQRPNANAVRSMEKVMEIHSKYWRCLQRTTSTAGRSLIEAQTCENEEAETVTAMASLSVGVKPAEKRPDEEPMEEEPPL
# Protocol: as §1
# HDAC7 = biological target: T3, HDAC7 (Homo sapiens, UniProt Q8WUI4); assay: HDAC enzyme activity test, HDAC7; format: biochemical
# T3 sequence (Q8WUI4 1-952): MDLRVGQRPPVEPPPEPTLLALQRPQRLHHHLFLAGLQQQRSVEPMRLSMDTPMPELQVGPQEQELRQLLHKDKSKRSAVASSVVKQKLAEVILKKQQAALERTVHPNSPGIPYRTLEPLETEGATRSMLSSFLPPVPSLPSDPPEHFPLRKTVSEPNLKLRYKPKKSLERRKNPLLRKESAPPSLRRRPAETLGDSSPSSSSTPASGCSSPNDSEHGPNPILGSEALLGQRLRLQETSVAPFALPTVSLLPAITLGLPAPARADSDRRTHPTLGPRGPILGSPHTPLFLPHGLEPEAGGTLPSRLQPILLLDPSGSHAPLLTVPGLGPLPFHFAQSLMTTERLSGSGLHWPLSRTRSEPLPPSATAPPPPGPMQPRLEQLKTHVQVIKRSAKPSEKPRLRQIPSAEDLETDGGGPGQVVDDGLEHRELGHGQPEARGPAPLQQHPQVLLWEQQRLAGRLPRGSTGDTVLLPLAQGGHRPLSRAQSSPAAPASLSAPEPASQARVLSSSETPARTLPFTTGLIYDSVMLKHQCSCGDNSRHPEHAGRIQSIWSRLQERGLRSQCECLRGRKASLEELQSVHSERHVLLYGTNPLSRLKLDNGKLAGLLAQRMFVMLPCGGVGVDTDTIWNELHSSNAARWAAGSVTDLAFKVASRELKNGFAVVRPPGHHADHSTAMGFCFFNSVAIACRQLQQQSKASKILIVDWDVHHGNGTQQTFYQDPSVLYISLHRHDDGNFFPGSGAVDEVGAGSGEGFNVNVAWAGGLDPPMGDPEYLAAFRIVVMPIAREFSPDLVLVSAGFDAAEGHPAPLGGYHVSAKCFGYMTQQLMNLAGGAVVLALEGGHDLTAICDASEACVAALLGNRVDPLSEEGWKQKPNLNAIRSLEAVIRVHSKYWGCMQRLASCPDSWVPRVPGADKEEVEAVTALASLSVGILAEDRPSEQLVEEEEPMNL
# Protocol: as §1
# HDAC3 = HDAC3 (Homo sapiens, UniProt O15379); assay: HDAC enzyme activity test, HDAC3; format: biochemical; details: Table 11, eleven HDAC isozymes; read-out: Inhibition ability (IC50) against HDAC3
# HDAC3, sequence (O15379 whole entry, species assumed): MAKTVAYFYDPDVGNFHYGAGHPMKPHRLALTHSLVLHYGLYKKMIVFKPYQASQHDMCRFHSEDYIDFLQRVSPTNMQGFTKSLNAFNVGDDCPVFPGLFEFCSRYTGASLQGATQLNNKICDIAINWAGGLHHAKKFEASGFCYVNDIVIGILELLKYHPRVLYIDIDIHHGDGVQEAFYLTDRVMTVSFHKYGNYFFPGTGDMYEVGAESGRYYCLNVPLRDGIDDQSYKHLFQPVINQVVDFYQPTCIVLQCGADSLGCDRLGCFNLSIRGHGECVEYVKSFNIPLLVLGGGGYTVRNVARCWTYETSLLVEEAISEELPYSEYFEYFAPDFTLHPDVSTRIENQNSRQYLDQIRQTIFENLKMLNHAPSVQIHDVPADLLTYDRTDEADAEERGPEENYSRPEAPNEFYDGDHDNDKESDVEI
# HDAC3, sequence (Q9Y618 395-489 partner limits assumed, species assumed): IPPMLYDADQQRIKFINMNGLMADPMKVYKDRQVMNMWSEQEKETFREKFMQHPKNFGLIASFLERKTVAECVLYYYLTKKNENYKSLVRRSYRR
# Protocol: as §1
# [2] = Table 12, read-out: Inhibition ability (IC50) HDAC1
# [3] = Table 11, eleven HDAC isozymes, read-out: Inhibition ability (IC50) against HDAC1
# T1 sequence (Q13547 whole entry): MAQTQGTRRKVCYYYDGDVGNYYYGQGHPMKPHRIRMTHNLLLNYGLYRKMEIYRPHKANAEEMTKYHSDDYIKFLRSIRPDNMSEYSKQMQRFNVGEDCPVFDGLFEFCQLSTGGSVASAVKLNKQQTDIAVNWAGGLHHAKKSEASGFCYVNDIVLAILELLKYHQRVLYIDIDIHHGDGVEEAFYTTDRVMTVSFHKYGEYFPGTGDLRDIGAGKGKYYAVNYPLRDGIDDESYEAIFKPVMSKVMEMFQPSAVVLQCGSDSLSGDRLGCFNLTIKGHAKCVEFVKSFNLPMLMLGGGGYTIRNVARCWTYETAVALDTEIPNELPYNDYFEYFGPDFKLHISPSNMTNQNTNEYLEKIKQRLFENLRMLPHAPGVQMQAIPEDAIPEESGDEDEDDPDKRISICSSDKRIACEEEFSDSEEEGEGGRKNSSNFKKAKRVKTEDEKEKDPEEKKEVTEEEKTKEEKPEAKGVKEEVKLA
compound,measurement,setting,value
"CC1(C)CC(=O)c2c(C(F)(F)F)nn(Cc3ccc(C(=O)NO)cc3)c2C1 [Compound 237, 4-((6,6-dimethyl-4-oxo-3-(trifluoromethyl)-4,5,6,7-tetrahydro-1H-indazol-1-yl)methyl)-N-hydroxybenzamide]",IC50,Human recombinant HDAC1; [2],3910 nM
same,IC50,HDAC8,3930 nM
same,IC50,HDAC9,16900 nM
same,"clinical score decreased, compared with the control group (only vehicle)",[1]; 15 mpk b.i.d. s.c.,53%
same,"clinical score decreased, compared with the control group (only vehicle)",[1]; 15 mpk q.d. s.c.,7%
same,"clinical score decreased, compared with the control group (only vehicle)",[1]; 30 mpk q.d. s.c.,65%
same,body-weight loss or toxic side effect,"[1]; during the administration of drug, 15 and 30 mg/kg s.c.",body-weight loss or toxic side effect was not observed
same,IC50,HDAC4,4990 nM
"CN1CCN(C(=O)N(CCCCCCC(=O)NO)c2ccc(-c3ccc4cnn(C)c4c3)cc2)CC1 [CKD-581, reference compound]",IC50,Human recombinant HDAC1; [3],0.673 nM
same,IC50,HDAC8,86.1 nM
same,IC50,HDAC9,0.42 nM
same,IC50,"HDAC7; Table 11, eleven HDAC isozymes, read-out: Inhibition ability (IC50) against HDAC7",10.7 nM
same,IC50,HDAC3,0.693 nM
same,IC50,HDAC4,1680 nM
"CN1CCN(CC2CCc3c(c4cc(F)ccc4n3Cc3ccc(C(=O)NO)cc3)C2=O)CC1 (centres unmarked) [Compound 142, 4-((6-fluoro-3-((4-methylpiperazin-1-yl)methyl)-4-oxo-1,2,3,4-tetrahydrocarbazol-9-yl)methyl)-N-hydroxybenzamide]",IC50,Human recombinant HDAC1; [3],12200 nM
same,IC50,Human recombinant HDAC1; [2],2650 nM
same,IC50,HDAC8,1060 nM
same,IC50,HDAC9,1880 nM
same,IC50,HDAC7,4530 nM
same,IC50,HDAC4,2210 nM
"O=C(NO)c1ccc(Cn2c3c(c4ccccc42)C(=O)C(CN2CCOCC2)CC3)cc1 (centres unmarked) [Compound 87, N-hydroxy-4-((3-(morpholinomethyl)-4-oxo-1,2,3,4-tetrahydrocarbazol-9-yl)methyl)benzamide]",IC50,Human recombinant HDAC1; [2],3070 nM
same,IC50,"Human recombinant HDAC1; data of Table 11, read-out: IC50 against HDAC1",11200 nM
same,IC50,HDAC8,1280 nM
same,IC50,HDAC9,1750 nM
same,IC50,HDAC7,3280 nM
same,IC50,HDAC4,934 nM
"O=C(NO)c1ccc(Cn2c3c(c4ccccc42)C(=O)N(CCN2CCOCC2)CC3)cc1 [Compound 249, N-hydroxy-4-((2-(2-morpholinoethyl)-1-oxo-1,2,3,4-tetrahydropyrido[4,3-b]indol-5-yl)methyl)benzamide]",IC50,Human recombinant HDAC1; [3],8470 nM
same,IC50,Human recombinant HDAC1; [2],3460 nM
same,IC50,HDAC8,220 nM
same,IC50,HDAC9,1030 nM
same,IC50,HDAC7,3420 nM
same,IC50,HDAC4,255 nM
